Test [1] deals with RBC membrane permeability. Type of test: cell-based, human. An excerpt: The present disclosure also provides technologies for assessing (e.g., identifying and/or characterizing) agents and/or other compositions that modulate RBC membrane permeability (collectively, “RBC Permeability Modulating Agents”). Provided technologies may be useful for identifying RBC Permeability Modulating Agents. In some instances, a RBC Permeability Modulating Agent is expected to effect the health state of a subject exposed it (e.g., a beneficial or adverse effect). For example, provided methods allow for the evaluation of agents and/or compositions intended for use in humans (e.g., a drug candidate or prosthetic material).
In some embodiments, a sample is analyzed within a particular time period after being subjected to an agent or composition (e.g., within about 5 minutes, about 10 minutes, about 30 minutes, about 1 hour, about 2 hours, or about 5 hours). In some embodiments, a method further comprises evaluating dose response of an agent or composition (e.g., by subjecting each of a plurality of samples to varying concentrations of agent or composition).
(§1) A sample of whole blood from a healthy volunteer was drawn into ACD anticoagulant. The unwashed sample was divided into aliquots and was analyzed using the Prior Shine Technology and/or the Provided Cell Scanning Technologies. The following outputs were obtained from the sample:
“Pk0” coincided with the minimum absolute osmotic pressure (e.g., most hypotonic pressure) to which a cell can be subjected without loss of integrity. Pk0 can be identified by determining the right-most extent of the intact cell population in the cell-by-cell graph, i.e., the point of osmolality immediately preceding the point at which the cells ruptured. In FIG. 1a, this minimum pressure is the “peak” 106. […]
Using the technologies described herein, a cell-by-cell analysis was converted into a plot of percent change of cell volume vs. osmolality (“Cell Scan Plot”) by converting the individual peak voltage into a cell volume, then calculating a mean volume for each 100 cells, and plotting the means to generate the Cell Scan Plot. The percentage change of cell volume at each osmolality is calculated and compared to the mean cell volume of an isotonic cell (e.g., FIG. 1b). […]
The Fluid Flux Curve (FFC) was determined by taking the first order derivative (with respect to osmolality) of Cell Scan Plot (FIG. 1c). […]
Using the technologies provided herein, agents were tested for potential adverse in vivo effects prior to use in humans and/or animals. For example, a blood sample from a healthy volunteer was contacted with amphotericin B (0.5 μg/mL) and was analyzed using the provided cell scanning technologies. […]

In test [2] the test system is RBC membrane permeability. Put plainly: Cell scan of blood samples from patients/subjects (RBC membrane permeability parameters), including effect of medication taken. It counts as in vivo, human. The settings on record: for effect of medication on the output of the cell scanning technologies: medication the subject has taken or is taking.
Text: The present disclosure encompasses the recognition that one or more medications that the subject has taken or is taking may affect the output of the cell scanning technologies described herein. The effect of a particular medication on the output of the cell scanning technologies may vary by medication, e.g., vary in magnitude and/or in length of effect, and in some cases, a particular medication may have no effect at all. […] Accordingly, in some embodiments, provided methods further comprise determining whether or not the subject has taken or is taking a particular medication. In some embodiments, if the subject has taken a medication known to have a particular effect on the output of the cell scanning technologies, then a determined RBC membrane permeability parameter should be compared to a suitable reference control parameter (e.g., a reference control parameter determined in the presence or absence of the particular medication). In some embodiments, if the subject has taken a medication known to have a particular effect on the output of the cell scanning technologies, then further diagnostic assessment is warranted.
as §1
“Pk0” coincided with the minimum absolute osmotic pressure (e.g., most hypotonic pressure) to which a cell can be subjected without loss of integrity. Pk0 can be identified by determining the right-most extent of the intact cell population in the cell-by-cell graph, i.e., the point of osmolality immediately preceding the point at which the cells ruptured. In FIG. 1a, this minimum pressure is the “peak” 106. As the osmolality of the surrounding solution was reduced, the red blood cell ruptures and forms a ghost cell, which releases its contents into the surrounding medium.
Using the technologies described herein, a cell-by-cell analysis was converted into a plot of percent change of cell volume vs. osmolality (“Cell Scan Plot”) by converting the individual peak voltage into a cell volume, then calculating a mean volume for each 100 cells, and plotting the means to generate the Cell Scan Plot. The percentage change of cell volume at each osmolality is calculated and compared to the mean cell volume of an isotonic cell (e.g., FIG. 1b). On such a plot, Pk0 (see 101) is the osmotic pressure at which the net water flow is zero (i.e., when a cell achieved its maximum volume, i.e., when it is a perfect sphere). As described herein, in some embodiments, Pk0 can be used as an indicator of an individual's health status.
The Fluid Flux Curve (FFC) was determined by taking the first order derivative (with respect to osmolality) of Cell Scan Plot (FIG. 1c). In an FFC, Pk0 occurred at the zero crossing (101), which was where the slope of the Cell Scan Plot changes from positive to negative. A positive value on the FFC represented a net flow of fluid into the cell, while negative rates represented a net flow of fluid out of the cell. In the FFC, the positive peak 102 and negative peak 103 corresponded to the maximum and minimum, respectively, on the FFC. As used herein, “Pymax” is the magnitude of fluid flux at the maximum, and “Pymin” is the magnitude of fluid flux at the minimum.
Table 7 is organized by indication and reports the mean values for various parameters tested.
A person was tested using cell scanning technologies described herein at a check-up 2 months after being diagnosed with grand mal epilepsy. The results were within normal limits (as they were on a prior visit), except for the Pk0 which had shifted approx. 10 mOsm/kg to 136 mOsm/kg. Such a change may be attributed to their prescribed medication, phenytoin.

Where two headings read alike, the source gives them in different places.

As to `[Cl][Hg][Cl]` [HgCl2], the “flow of water across the membrane” value in test [1] (unwashed whole blood from a healthy volunteer treated with 65 μM HgCl2) was “no flow of water across the membrane was detected”. For the same molecule, the RBC membrane permeability result in test [1] (unwashed whole blood from a healthy volunteer treated with 65 μM HgCl2, monitored over time) was “essentially eliminated”. The molecule `C[C@@H]1[C@H](O)[C@@H](C)/C=C/C=C/C=C/C=C/C=C/C=C/C=C/[C@H](O[C@@H]2O[C@H](C)[C@@H](O)[C@H](N)[C@@H]2O)C[C@@H]2O[C@](O)(C[C@@H](O)C[C@@H](O)[C@H](O)CC[C@@H](O)C[C@@H](O)CC(=O)O[C@H]1C)C[C@H](O)[C@H]2C(=O)O` [amphotericin B] gave a Pk0 in test [1] (blood sample from a healthy volunteer contacted with amphotericin B 0.5 μg/mL, normal Pk0 approx. 142 mOsm/kg) of 85 mOsm/kg. In addition, the “effect of medication on the output of the cell scanning technologies” value (“effect … of the cell scanning technologies” for short) in test [2] was “have an effect on the output”.

As for `OCCS` [beta-mercaptoethanol], the “effect of HgCl2 on RBC membrane permeability after addition of chelator” value in test [1] is “the effect was reversed and RBC membrane permeability was restored”. For the molecule `CC(C)(S)[C@@H](N)C(=O)O` [penicillamine], the “effect … of the cell scanning technologies” value in test [2] is “have an effect on the output”. On the same count and under the same terms, the result for `CCC1(c2ccccc2)C(=O)NC(=O)NC1=O` [phenobarbitone] reads “have an effect on the output”. Take `O=C1NC(=O)C(c2ccccc2)(c2ccccc2)N1` [phenytoin]: in test [2] (Patient X on prescribed phenytoin, change may be attributed to the medication), the “shift of Pk0 versus prior visit” value is reported as “approx. 10 mOsm/kg”. In test [2] (Patient X, person with grand mal epilepsy, 2 months after diagnosis, on prescribed phenytoin, change may be attributed to the medication), this molecule displayed a Pk0 of 136 mOsm/kg. The “effect … of the cell scanning technologies” value in test [2] is “have an effect on the output”.

For the molecule `CC(=O)CC(c1ccccc1)c1c(O)c2ccccc2oc1=O` (stereo not drawn) [warfarin], the “P0 (TOTAL)” value in test [2] (mean value for patients with pulmonary embolus on warfarin, all patients (N=4)) was found to be 149.4. Besides, the “P0 (died)” value in test [2] (mean value for patients with pulmonary embolus on warfarin, subset who died (N=1)) is recorded as 157.

These data come from patent US20210341371A1, “CELL SCANNING TECHNOLOGIES AND METHODS OF USE THEREOF” (priority 2018, published 2021).
